In patent publication US20110039762A1, “TARGETED ANTIMICROBIAL MOIETIES” (C3 JIAN, INC., priority 2009, published 2011):
Entries after “also recorded” stand apart in the source; their conditions may differ.

Experiments:
[1] = tested on: microorganisms (e.g., bacteria, yeasts, fungi); assay: Targeting peptide binding to target microorganisms (Table 3); conditions: preferably 1x PBS; for Target(s) (microorganisms bound by the targeting peptide): peptide binding in aqueous buffers varied by peptide solubility
[2] = tested on: M. luteus; assay: Kill or inhibit growth/proliferation; morphology, biofilm and growth disruption (Tables 5, 6); format: cell-based, Micrococcus luteus; design: key: A: Peptide aggregates; B: Less hyphal formation; Clumps; Diffuse clumps and small polyps; F: Diffuse growth; H: Thin; I: Growth inhibition; Microcolony formation; Rippled; Small polyps; Thick; W: Halo formation on top, microlonies on bottom; further: test concentration or dose not given here
[3] = tested on: C. jeikeium; assay: as above; format: cell-based, Corynebacterium jeikeium; design: key: A: Peptide aggregates; B: Less hyphal formation; Clumps; Diffuse clumps and small polyps; F: Diffuse growth; H: Thin; I: Growth inhibition; Microcolony formation; Rippled; Small polyps; Thick; W: Halo formation on top, microlonies on bottom; further: test concentration or dose not given here
[4] = tested on: microorganisms; assay: Peptides having multiple activities (targeting/binding, antimicrobial, growth or phenotype altering)
From the text: In certain embodiments, peptides described herein can have multiple activities. Thus for example, a peptide can have both binding/targeting activity and antimicrobial activity. Such peptides can be used, e.g., in a chimeric construct, for any or all of these properties. Thus, for example, a peptide designated “B” in Table 8 can be used as a targeting peptide. If it is also designated G or M it can also be used for antimicrobial activity.

[5] = tested on: S. epidermidis; assay: Kill or inhibit growth/proliferation; morphology, biofilm and growth disruption (Tables 5, 6); format: cell-based, Staphylococcus epidermidis; design: key: A: Peptide aggregates; B: Less hyphal formation; Clumps; Diffuse clumps and small polyps; F: Diffuse growth; H: Thin; I: Growth inhibition; Microcolony formation; Rippled; Small polyps; Thick; W: Halo formation on top, microlonies on bottom; further: test concentration or dose not given here
[6] = tested on: MRSA; assay: as above; format: cell-based, Methicillin-resistant Staphylococcus aureus; design: key: A: Peptide aggregates; B: Less hyphal formation; Clumps; Diffuse clumps and small polyps; F: Diffuse growth; H: Thin; I: Growth inhibition; Microcolony formation; Rippled; Small polyps; Thick; W: Halo formation on top, microlonies on bottom; further: test concentration or dose not given here
[7] = tested on: E. coli; assay: as above; format: cell-based, Escherichia coli; design: key: A: Peptide aggregates; B: Less hyphal formation; Clumps; Diffuse clumps and small polyps; F: Diffuse growth; H: Thin; I: Growth inhibition; Microcolony formation; Rippled; Small polyps; Thick; W: Halo formation on top, microlonies on bottom; further: test concentration or dose not given here
[8] = tested on: E. faecalis; assay: as above; format: cell-based, Enterococcus faecalis; design: key: A: Peptide aggregates; B: Less hyphal formation; Clumps; Diffuse clumps and small polyps; F: Diffuse growth; H: Thin; I: Growth inhibition; Microcolony formation; Rippled; Small polyps; Thick; W: Halo formation on top, microlonies on bottom; further: test concentration or dose not given here
[9] = tested on: S. pneumoniae; assay: as above; format: cell-based, Streptococcus pneumoniae; design: key: A: Peptide aggregates; B: Less hyphal formation; Clumps; Diffuse clumps and small polyps; F: Diffuse growth; H: Thin; I: Growth inhibition; Microcolony formation; Rippled; Small polyps; Thick; W: Halo formation on top, microlonies on bottom; further: test concentration or dose not given here
[10] = microorganism the targeting peptide binds, binding in aqueous buffers varied by peptide solubility

Substance	Organism, effect [2]	Organism, effect [3]	Activities [4]	Organism, effect [5]	Organism, effect [6]	also measured
LIQKGLNQTFIVVIRLNNFIKKS [PF-013]	M. luteus (D)	C. jeikeium (D)	G B	S. epidermidis (C)	MRSA (R)	Target(s) [1, 10]: M. luteus and P. mirabilis and E. coli and P. aeruginosa and MRSA and S. pneumoniae and C. jeikeium and C. jejuni
PF-001: peptide having multiple activities (chain 1 MNNWIIVAQLSVTVINEIIDIMKEKQKGGK; chain 2 MNNWIIVAQLSVTVINEIIDIMKEKQKGGK; Peptide with targeting and/or antimicrobial activity)	M. luteus (C)	C. jeikeium (D)	G B	S. epidermidis (C)	MRSA (R)	–
PF-003: peptide having multiple activities (chain 1 MNNWIKVAQISVTVINEVIDIMKEKQNGGK; chain 2 MNNWIKVAQISVTVINEVIDIMKEKQNGGK; Peptide with targeting and/or antimicrobial activity)	M. luteus (A)	C. jeikeium (A)	G B	S. epidermidis (D)	MRSA (R)	Target(s) [1, 10]: S. epidermidis and M. luteus and P. mirabilis and C. albicans and MRSA and C. jeikeium
PF-004: peptide having multiple activities (chain 1 ARLSKAIIIAVIVVYHLDVRGLF; chain 2 ARLSKAIIIAVIVVYHLDVRGLF; Peptide with targeting and/or antimicrobial activity)	M. luteus (A)	C. jeikeium (A)	G B	S. epidermidis (A)	MRSA (R)	–
PF-010: peptide having multiple activities (chain 1 MDIDVNKLLQAFVYFKSFEKLRHNNS; chain 2 MDIDVNKLLQAFVYFKSFEKLRHNNS; Peptide with targeting and/or antimicrobial activity)	M. luteus (A)	C. jeikeium (A)	G B	S. epidermidis (S)	MRSA (R)	Target(s) [1, 10]: S. epidermidis; also recorded: M. luteus; also recorded: E. coli; also recorded: C. albicans
PF-012: peptide having multiple activities (chain 1 WRGPNTEAGGKSANNIVQVGGAPT; chain 2 WRGPNTEAGGKSANNIVQVGGAPT; Peptide with targeting and/or antimicrobial activity)	M. luteus (C)	C. jeikeium (A)	G B	S. epidermidis (S)	MRSA (R)	–
PF-022: peptide having multiple activities (chain 1 MINELKNKNSGIMNNYVVTKESKL; chain 2 MINELKNKNSGIMNNYVVTKESKL; Peptide with targeting and/or antimicrobial activity)	M. luteus (A)	C. jeikeium (A)	G B	S. epidermidis (D)	MRSA (R)	–
PF-030: peptide having multiple activities (chain 1 MTCHQAPTTTHQSNMA; chain 2 MTCHQAPTTTHQSNMA; Peptide with targeting and/or antimicrobial activity)	M. luteus (C)	C. jeikeium (C)	G B	S. epidermidis (D)	MRSA (R)	–
PF-042: peptide having multiple activities (chain 1 LLLSYFRYTGALLQSLF; chain 2 LLLSYFRYTGALLQSLF; Peptide with targeting and/or antimicrobial activity)	M. luteus (C)	C. jeikeium (S)	G B	S. epidermidis (D)	MRSA (R)	–
PF-076: peptide having multiple activities (LYQYELLSKEEYLKCTLIINQRRNEQK; Peptide with targeting and/or antimicrobial activity)	M. luteus (A)	C. jeikeium (A)	G B	S. epidermidis (S)	MRSA (R)	–
PF-139: peptide having multiple activities (ALSKPAIQARTLCRRQDPP; Peptide with targeting and/or antimicrobial activity)	M. luteus (C)	C. jeikeium (R)	G B	S. epidermidis (M)	–	–
PF-176: peptide having multiple activities (RLTSNQFLTRITPFVFAQH; Peptide with targeting and/or antimicrobial activity)	M. luteus (C)	C. jeikeium (D)	G B	S. epidermidis (C)	–	Target(s) ([1]; microorganism(s) the targeting peptide binds, binding in aqueous buffers depending on peptide solubility): S. epidermidis and M. luteus and P. mirabilis and E. coli and C. albicans and MRSA and E. faecalis and C. jeikeium
PF-199 (FPAFSFGAIAGSVSVAR; Peptide with targeting and/or antimicrobial activity)	M. luteus (A)	C. jeikeium (R)	–	S. epidermidis (C)	–	–
PF-546: peptide having multiple activities (chain 1 PIIAPTIKTQIQ; chain 2 PIIAPTIKTQIQ; Peptide with targeting and/or antimicrobial activity)	–	C. jeikeium (D)	G B	S. epidermidis (D)	MRSA (D)	Target(s) ([1]; microorganism(s) the targeting peptide binds, peptide binding conducted in aqueous buffers varied by peptide solubility): S. epidermidis; also recorded: E. coli; also recorded: C. albicans; also recorded: S. pneumoniae; also recorded: E. faecalis; also recorded: C. jeikeium; Organism, effect [7]: E. coli (R); Organism, effect [8]: E. faecalis (D); Organism, effect [9]: S. pneumoniae (D)
PF-629: peptide having multiple activities (chain 1 GLAAIATVFALY; chain 2 GLAAIATVFALY; Peptide with targeting and/or antimicrobial activity)	–	C. jeikeium (R)	G B	S. epidermidis (C)	MRSA (D)	Target(s) (microorganisms bound by the targeting peptide) [1]: S. epidermidis and P. aeruginosa and C. albicans and MRSA and S. pneumoniae and E. faecalis and C. jeikeium; Organism, effect [8]: E. faecalis (R); Organism, effect [9]: S. pneumoniae (M)
PF-637: peptide having multiple activities (chain 1 SRIKQDARSVRKYDRIGIFFYSFKSA; chain 2 SRIKQDARSVRKYDRIGIFFYSFKSA; Peptide with targeting and/or antimicrobial activity)	–	C. jeikeium (D)	G B	S. epidermidis (M)	MRSA (M)	Target(s) (microorganisms bound by the targeting peptide) [1]: S. epidermidis and P. aeruginosa and C. albicans and MRSA and S. pneumoniae and E. faecalis and C. jeikeium; Organism, effect [8]: E. faecalis (D); Organism, effect [9]: S. pneumoniae (M)
PF-681: peptide having multiple activities (chain 1 TALTTVGVSGARLITYCVGVEDI; chain 2 TALTTVGVSGARLITYCVGVEDI; Peptide with targeting and/or antimicrobial activity)	–	–	G B	–	–	Target(s) (microorganisms bound by the targeting peptide) [1]: M. smegmatis; Organism, effect (morphology, biofilm and growth disruption) [3]: C. jeikeium (R); Organism, effect (morphology, biofilm and growth disruption) [8]: E. faecalis (R); Organism, effect (morphology, biofilm and growth disruption) [5]: S. epidermidis (M); Organism, effect (morphology, biofilm and growth disruption) [9]: S. pneumoniae (M); Organism, effect (morphology, biofilm and growth disruption) [6]: MRSA (M)
